Measurements reported in US4563476A, “Substituted 5-hydroxy-2,3-dihydrobenzofurans and analogs thereof useful as anti-inflammatory agents” (Merck & Co., Inc., priority 1983, dated 1986).

Key:
[1] = tested on: inflammatory responses elicited by topically applied phorbol myristate acetate (PMA) or topically applied arachidonic acid (AA); test: Topical mouse ear assay (TME), edema by wet weight; type: in vivo, mice; settings: PMA or AA not specified
Experimental: The topical mouse ear assay (TME) is the method by which the novel compounds of the present invention are evaluated for its effect on inflammatory responses elicited by topically applied phorbol myristate acetate (PMA) or topically applied arachidonic acid (AA). The inflammatory responses may be in the form of edema (measured by wet weight); vascular permeability (measured by ^125 I-BSA accumulation); or PMN infiltration (measured by myeloperoxidase activity).
Method: The right ears of mice (5 mice per group) were treated topically with either […] or 1000 μg AA alone or with the test compound in 25 μl of vehicle. The vehicle was water/pyridine/acetone (1:2:97). A control group of mice received the vehicle only. The mice were allowed food and water ad libitum during the treatment period; 2 hours for AA and 4 hours for PMA. The mice were sacrificed by cervical dislocation and a 6 mm diameter disc of tissue punched from both the treated and untreated ears. The tissue biopsies were immediately weighed and the weight increase of the treated ear relative to the weight of the untreated ear determined.
For the determination of vascular permeability, […] ^125 I-bovine serum albumin (^125 I-BSA) was administered in 0.5 ml phosphate buffered saline 15 min prior to the topical application. At the termination of the experiment, the amount of radioactivity in both the treated and untreated ear biopsies was determined and the increased amount of radioactivity in the treated tissue relative to the amount of radioactive in the untreated tissue determined.
As a measure of PMN infiltration, the amount of myeloperoxidase (MPO) activity in the same tissues was determined. The tissue biopsies were homogenized into 1 ml 0.5% hexadecyltrimethylammonium bromide and centrifuged for 45 min. at 1200×g. Aliquots 40 μl, of the supernatant phases were assayed for MPO activity by a colorimetric method devised by H. Dougherty for automated Titertek analysis. The MPO activity is expressed as the OD450 of the treated ear homogenate minus the OD450 of the non-treated ear homogenate.
All of the data are expressed as the mean ±SEM, N=5 mice/group.

[2] = tested on: inflammatory responses elicited by topically applied phorbol myristate acetate (PMA) or topically applied arachidonic acid (AA); settings: previously established; cited from earlier work

CC(=O)c1ccc(NCc2cc3c(cc2O)CCO3)cc1 [A, 5-Hydroxy-6-(4-acetylphenyl)aminomethyl-2,3-dihydrobenzofuran]
Edema (% inhibition) ([1]; Dosage 50 μg): 44%
Edema (% inhibition) ([1]; Dosage 100 μg): 45%
Edema (% inhibition) ([1]; Dosage 200 μg): 60%
Edema (% inhibition) ([1]; Dosage 400 μg): 76%

COc1ccc2c(c1)c(CC(=O)O)c(C)n2C(=O)c1ccc(Cl)cc1 [Indomethacin, indomethacin]
Edema (% inhibition) ([1]; Dosage 50 μg): 24%
Edema (% inhibition) ([1]; Dosage 100 μg): 42%
Edema (% inhibition) ([1]; Dosage 200 μg): 46%
Edema (% inhibition) ([1]; Dosage 400 μg): 85%
activity in the topical mouse ear assay [2]: active

C[C@@H]1C[C@H]2[C@@H]3CCC4=CC(=O)C=C[C@]4(C)[C@@]3(F)[C@@H](O)C[C@]2(C)[C@@]1(O)C(=O)CO [dexamethasone]
activity in the topical mouse ear assay [2]: active
